# Measured values: article PMC12615753, “Glutathione as a taste modulator: molecular mechanisms of interaction with umami and sweet taste receptors” (Food Chemistry: Molecular Sciences, 2025)
# pEC50: −log10 of the molar value.
# Biological target: T1, hTAS1R1 S172A/rTAS1R3 (UniProt Q7RTX1+Q923K1, S172A)
# T1 construct: UniProtKB number Q7RTX1–1); The cDNA coding region of rTAS1R3 was synthesized with optimized-codon usage for human expression; expressed in transfected cells; host or cells: HEK293T/17
# T1 sequence (Q7RTX1 21-841 S172A): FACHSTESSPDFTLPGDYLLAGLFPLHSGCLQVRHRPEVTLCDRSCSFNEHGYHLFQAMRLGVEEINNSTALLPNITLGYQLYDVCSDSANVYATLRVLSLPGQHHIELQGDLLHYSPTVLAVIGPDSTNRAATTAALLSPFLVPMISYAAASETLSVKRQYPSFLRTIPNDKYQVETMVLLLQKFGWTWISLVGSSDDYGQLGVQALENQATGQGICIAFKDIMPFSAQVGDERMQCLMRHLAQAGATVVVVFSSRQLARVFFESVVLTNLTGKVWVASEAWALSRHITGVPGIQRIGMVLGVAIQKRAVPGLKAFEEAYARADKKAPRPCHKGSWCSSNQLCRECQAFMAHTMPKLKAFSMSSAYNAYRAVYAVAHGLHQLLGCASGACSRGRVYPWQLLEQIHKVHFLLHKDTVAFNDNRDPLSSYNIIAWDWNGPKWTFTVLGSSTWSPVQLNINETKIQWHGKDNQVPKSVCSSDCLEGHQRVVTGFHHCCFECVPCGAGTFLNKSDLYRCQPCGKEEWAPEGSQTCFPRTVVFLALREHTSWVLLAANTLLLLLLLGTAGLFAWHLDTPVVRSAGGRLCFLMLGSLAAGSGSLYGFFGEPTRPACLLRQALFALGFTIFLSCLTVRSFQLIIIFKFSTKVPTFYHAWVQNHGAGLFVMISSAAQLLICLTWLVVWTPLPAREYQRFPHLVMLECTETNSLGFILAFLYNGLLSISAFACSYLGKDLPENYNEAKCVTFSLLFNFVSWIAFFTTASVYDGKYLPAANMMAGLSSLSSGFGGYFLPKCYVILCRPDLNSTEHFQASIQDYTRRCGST
# T1 sequence (Q923K1 21-858): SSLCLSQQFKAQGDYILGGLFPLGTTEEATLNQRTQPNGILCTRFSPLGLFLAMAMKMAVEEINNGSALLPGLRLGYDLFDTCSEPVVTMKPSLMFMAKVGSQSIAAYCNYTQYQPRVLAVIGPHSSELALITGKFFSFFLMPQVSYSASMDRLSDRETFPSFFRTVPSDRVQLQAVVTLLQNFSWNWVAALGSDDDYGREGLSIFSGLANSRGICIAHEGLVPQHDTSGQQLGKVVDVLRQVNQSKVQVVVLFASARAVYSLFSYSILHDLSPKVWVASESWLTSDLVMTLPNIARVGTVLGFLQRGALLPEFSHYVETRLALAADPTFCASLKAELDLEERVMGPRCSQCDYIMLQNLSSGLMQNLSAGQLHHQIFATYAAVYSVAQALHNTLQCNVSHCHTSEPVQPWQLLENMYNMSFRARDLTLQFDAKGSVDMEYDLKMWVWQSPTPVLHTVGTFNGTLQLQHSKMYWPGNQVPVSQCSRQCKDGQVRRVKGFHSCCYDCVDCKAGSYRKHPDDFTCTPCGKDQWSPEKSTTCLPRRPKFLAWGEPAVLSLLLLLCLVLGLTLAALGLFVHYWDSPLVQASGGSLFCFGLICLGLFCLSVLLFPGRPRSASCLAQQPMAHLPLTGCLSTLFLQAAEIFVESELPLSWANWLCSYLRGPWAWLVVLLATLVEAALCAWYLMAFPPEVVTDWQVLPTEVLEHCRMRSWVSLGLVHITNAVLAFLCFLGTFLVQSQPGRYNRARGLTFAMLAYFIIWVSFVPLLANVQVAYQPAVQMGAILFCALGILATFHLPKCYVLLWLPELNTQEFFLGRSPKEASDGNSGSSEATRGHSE
# Experiment: Calcium assay, hTAS1R1 mutant co-expressed with rTAS1R3
# Format: cell-based, human, rat
# Settings: for response to the agonist alone, vs WT: S172A
Structure (SMILES),"response to the agonist alone, vs WT",pEC50
"N[C@@H](CCC(=O)O)C(=O)O [L-Glu, L-glutamic acid, reference compound]",completely suppressed,
"N[C@@H](CCC(=O)N[C@@H](CS)C(=O)NCC(=O)O)C(=O)O [GSH, γ-L-glutamyl-L-cysteinyl-glycine]",fully abolished,< 1.52
"CCCC(CCC)NC(=O)c1ccc2c(c1)OCO2 [S807, N-(heptan-4-yl)benzo[d][1,3]dioxole-5-carboxamide, reference compound]",strongly affected,
